Test [1] relates to Wnt pathway (Sp5-Luc reporter, TCF/LEF binding sites) in SW480 colon carcinoma cells. Kind of test: Screening assay for Wnt activity: Sp5-Luc reporter gene assay.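 Further: firefly luciferase luminescence read in stably transduced SW480 cells carrying the Sp5 promoter reporter with eight TCF/LEF sites, compounds given in 0.1% DMSO final.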 The settings on record: Sp5-Luc reporter, SW480 cells, 36 to 48 hours. The test is classed as cell-based, human. (A reporter such as luciferase makes a cellular process visible.)
Method: The screening assay for Wnt activity is described as follows.
Following incubation, 15 μl of BriteLite Plus luminescence reagent (Perkin Elmer) was added to each well of the 384-well assay plates. The plates were placed on an orbital shaker for 2 min and then luminescence was quantified using the Envision (Perkin Elmer) plate reader.
Test [2] addresses recombinant DYRK1A kinase (Homo sapiens (Human), UniProt Q13627). Kind of test: DYRK1A kinase assay (Ser/Thr 18 peptide Z-lyte FRET).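 Further: Read-out is the coumarin to fluorescein emission ratio, referenced to unphosphorylated (0%) and phosphorylated (100%) Ser/Thr 18 peptide controls, values from dose-response curves by non-linear regression.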 The test is classed as biochemical. As to conditions: 30 μM ATP, 1 h room temperature.
In test [3] the target is recombinant GSK3β kinase (Homo sapiens (Human), UniProt P49841). Briefly: GSK3β kinase assay (Ser/Thr 09 peptide Z-lyte FRET).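 Further: kinase activity read as coumarin to fluorescein emission ratio, 11-point threefold dilutions from 10 µM to 0.0003 µM in duplicate, unphosphorylated and phosphorylated peptide as 0% and 100% controls.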 The test is classed as biochemical. The settings on record: 46 μM ATP, 1 h room temperature.
Test [4] has as its system Tau phosphorylation at Ser396 (pSer396). Briefly: Tau phosphorylation assay (pSer396 ELISA / western blot) in SH-SY5Y cells.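 Further: EC50 for reduction of Tau pSer396 in lysed cells, measured by colorimetric ELISA or chemiluminescent western blot, both using the same pSer396 antibody.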 As to conditions: read-out: pSer396 Tau EC50. The test is classed as cell-based, human. On the technique in general: ELISA stands for enzyme-linked immunosorbent assay.
Test [5] concerns SW480 colon carcinoma cells. Kind of test: Cell viability assay (CellTiter-Glo). The settings on record: SW480 cells, CellTiter-Glo, four days incubation. The test is classed as cell-based, human. A general note: In ATP-based viability assays light output follows the ATP content of the culture.
The test system of test [6] is IL-6. Kind of test: IL-6 inhibition in LPS-stimulated human peripheral blood mononuclear cells (HTRF).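 On all read-outs here: IL-6 detected by HTRF with an XL665- and Cryptate-labelled anti-IL-6 antibody pair, samples run in duplicate, EC50 obtained from a four-parameter Levenberg-Marquardt curve fit.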 The class given is cell-based. The settings on record: for EC50: Table 9, huPBMCs, LPS 50 ng/mL, 22 hours, dose-response starting from 10 μM.
Method: After 22 hour incubation, a mixture of anti-IL6 XL665 and anti-IL-6 Cryptate diluted in reconstitution buffer (Catalog #62IL6PEC, Cisbio Inc., Bedford, Mass.) was added to each well. […] All samples were processed in duplicate. […] EC50 was determined using software generated by Dotmatics Limited (Windhill Bishops Stortford Herts, UK) using the Levenberg-Marquardt 4 parameter fitting procedure with finite different gradients.
For test [7], the system named is IL-6. Briefly: Secreted cytokines in lipopolysaccharide-stimulated BV-2 mouse microglial cells: IL-6. The test is classed as cell-based. The settings on record: BV-2 cells, compounds overnight, LPS 250 ng/mL 5 h. Here is the method: (§1) Representative compounds were screened using the cell-based assay procedure for secreted cytokines in a Lipopolysaccharide-stimulated mouse glial cell line described below.
(§2) BV-2 cells (mouse microglial cells) were cultured in 1:1 DMEM medium supplemented with 10% FBS, and 1% penicillin/streptomycin.
(§3) BV-2 cells are plated at 35,000 cells/well in a volume of 100 ul for at least 4 hours before compounds are added. DMSO-resuspended compounds were first dispensed in a 96 well plate and serial diluted from 10 μM to 4.6 nM final concentration in medium. Compounds were added to cells overnight. Two hundred fifty ng per milliliter of lipopolysaccharide (Escherichia coli O55:B5, SIGMA) was added for 5 h. Supernatant is removed and saved for further cytokine detection. The original plates with seeded cells were tested for cytotoxicity by measure of adenosine triphosphate (ATP) release by adding CellTiter-Glo® diluted 1:4 in distilled water (G7573, Promega) and transferring lysed cells to a completely black 96-well plate to be read with the Cytation3. Supernatant was then diluted 1:2 with a diluent from V-PLEX cytokine Kit and directly tested for the secreted cytokines TNFα, IL-6 and KC-GRO using electrochemiluminescence (Meso Scale Discovery). The standard curve for each cytokine was used to convert the electrochemiluminescent signal into pg of protein per mL.

For test [8], the system named is α-smooth muscle actin (αSMA) positive LL29 cells. Briefly: Inhibition of fibrotic process: αSMA in TGF-β1 treated primary human fibroblasts from IPF patients.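 Further: controls were TGF-β1 stimulated wells with DMSO vehicle (positive) and cells given DMSO alone (negative), cultured in F12 medium with 1% fetal bovine serum.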 The test is classed as cell-based. The settings on record: Homo sapiens, Fibroblast, 96 h; Table 8; LL29 fibroblasts from IPF patients, TGF-β1 20 ng/mL, 4 days; dose-response 10 μM to 0.94 nM.
For test [9], the system named is TNFα. Kind of test: Secreted cytokines in lipopolysaccharide-stimulated BV-2 mouse microglial cells: TNFα. The class given is cell-based. As to conditions: BV-2 cells, compounds overnight, LPS 250 ng/mL 5 h. Here is the method:
as §1, §2, §3

In test [10] the test system is secreted β-amyloid 40 (Aβ40) peptide. Briefly: Secreted β-amyloid 40 (Aβ40) peptide in APP overexpressing SH-SY5Y-APP cells. The test is classed as cell-based. The settings on record: Homo sapiens, overnight (16-18 hours).
Method: Representative compounds were screened using the cell-based assay procedure for secreted β-amyloid 40 (Aβ40) peptide in an APP overexpressing cell line described below.
SH-SY5Y cells were infected with lentivirus to overexpress amyloid (A4) beta precursor protein (APP), hereafter referred to as the SH-SY5Y-APP cells.
SH-SY5Y cells were seeded onto 6-well plates at
The cell assay procedure start 18 h prior to treatment, as SH-SY5Y-APP cells were seeded onto 96-well plates at
At this time, designated wells were seeded with SH-SY5Y cells that were seeded and treated with puromycin at
Cells were exposed overnight (16-18 hours) in a 37° C. incubator before supernatant was harvested. […] The original plates with seeded cells were tested for cytotoxicity by measure of adenosine triphosphate (ATP) release by adding CellTiter-Glo® diluted 1:4 in distilled water (G7573, Promega) and transferring lysed cells to a completely black 96-well plate to be read with the Cytation3. Plates containing supernatant were spun down at 1200 g for 10 minutes to remove any cellular debris. Supernatant was then diluted 1:2 with a diluent from V-PLEX Aβ40 Peptide (6E10) Kit and directly tested for secreted Aβ40 peptide (K150SKE, Meso Scale Discovery).
The subject of test [11] is KC-GRO. Kind of test: Secreted cytokines in lipopolysaccharide-stimulated BV-2 mouse microglial cells: KC-GRO. The test is classed as cell-based. The settings on record: BV-2 cells, compounds overnight, LPS 250 ng/mL 5 h. Here is the method:
as §1, §2, §3

Setting [12] is: Homo sapiens, SH-SY5Y cells, overnight (16-18 h) exposure.

Read-outs that look alike come from different tables or passages of the source. Bounds are passed on as bounds.

The source of these data is patent US10287267B2, “Isoquinolin-3-yl carboxamides and preparation and use thereof” (Samumed, LLC, priority 2016, dated 2019).

The EC50 is the midpoint of the concentration-response curve. The term IC50 denotes the midpoint of a concentration-inhibition curve. A high value points to weaker potency.

Sequence of recombinant GSK3β kinase (P49841 whole entry): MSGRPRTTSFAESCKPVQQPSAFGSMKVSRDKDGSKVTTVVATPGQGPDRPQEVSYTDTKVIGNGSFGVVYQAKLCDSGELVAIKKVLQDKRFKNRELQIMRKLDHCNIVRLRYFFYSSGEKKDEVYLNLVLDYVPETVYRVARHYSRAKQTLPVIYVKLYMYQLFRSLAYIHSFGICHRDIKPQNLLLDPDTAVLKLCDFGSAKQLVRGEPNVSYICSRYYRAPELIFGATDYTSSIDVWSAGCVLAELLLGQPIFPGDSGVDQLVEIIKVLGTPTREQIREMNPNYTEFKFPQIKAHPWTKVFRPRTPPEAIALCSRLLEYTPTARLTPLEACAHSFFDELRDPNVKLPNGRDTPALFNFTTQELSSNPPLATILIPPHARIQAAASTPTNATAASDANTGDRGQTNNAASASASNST

With “1-(2-Hydroxy-2-methylpropyl)-N-(6-(1-methyl-1H-1,2,3-triazol-4-yl) isoquinolin-3-yl)piperidine-4-carboxamide [Compound 1070]”, the EC50 in test [1] was 0.738 µM; in [2], 0.0076 µM; in [3], 0.016 µM; in [4] (SH-SY5Y cells, overnight (16-18 h) exposure), 0.091 µM; in test [5], 8.39 µM; in test [6] it was 6.47 µM. It took 0.014 µM to reach a half-maximal effect in test [7] (EC50).
Regarding `CN1CCC(C(=O)Nc2cc3cc(-c4cnn(C)c4)ccc3cn2)CC1` [Compound 73, 1-Methyl-N-(6-(1-methyl-1H-pyrazol-4-yl)isoquinolin-3-yl)piperidine-4-carboxamide], the EC50 in [1] (Homo sapiens) is 0.485 µM; in test [2], 0.0017 µM; in test [3] it was 0.049 µM; in test [4] (setting [12]), 0.199 µM; in test [5] (Homo sapiens, 96 h), 0.769 µM; in test [8] it was 0.169 µM. The EC50 was found to be 0.963 µM in [6] (Homo sapiens, PBMC); 0.023 µM in test [9]; 0.08 µM in test [7] (Mus musculus).
On to `Cn1cc(-c2ccc3cnc(NC(=O)C4CCN(CCF)CC4)cc3c2)cn1` [Compound 81, 1-(2-Fluoroethyl)-N-(6-(1-methyl-1H-pyrazol-4-yl)isoquinolin-3-yl) piperidine-4-carboxamide], for which the EC50 in test [1] (Homo sapiens) was 0.735 µM; in test [2] it was 0.0015 µM; in [3], 0.03 µM; in test [4] (setting [12]), 0.452 µM; in test [5] (Homo sapiens, 96 h), 0.949 µM; in [8], 0.104 µM. The EC50 in test [6] (Homo sapiens, PBMC) is 0.395 µM; in [9], more than 10 µM; in [7] (Mus musculus), 0.03 µM. Besides, half-maximal inhibition in test [10] (IC50) was put at 2.3 µM.
On to `Cn1cc(-c2ccc3cnc(NC(=O)C4CCN(CC(C)(F)F)CC4)cc3c2)cn1` [Compound 83, 1-(2,2-Difluoropropyl)-N-(6-(1-methyl-1H-pyrazol-4-yl)isoquinolin-3-yl) piperidine-4-carboxamide], for which the EC50 is 2.9 µM in [1] (Homo sapiens); 0.0012 µM in test [2]; 0.034 µM in test [3]; 0.432 µM in test [4] (setting [12]); 6.34 µM in test [5] (Homo sapiens, 96 h); 0.067 µM in [8]. For the same compound, the EC50 came to 2.15 µM in test [6] (Homo sapiens, PBMC) and 0.006 µM in test [7] (Mus musculus). The same compound had an IC50 in [10] of more than 10 µM.
As for `Cn1cncc1-c1ccc2cnc(NC(=O)C3CCN(CCC(F)(F)F)CC3)cc2c1` [Compound 262, N-(6-(1-Methyl-1H-imidazol-5-yl)isoquinolin-3-yl)-1-(3,3,3-trifluoropropyl) piperidine-4-carboxamide], the EC50 in [1] (Homo sapiens) was 1.7 µM; in test [2], 0.0015 µM; in [3], 0.024 µM; in test [4] (setting [12]) it was 0.174 µM; in test [5] (Homo sapiens, 96 h) it was 1.39 µM; in [8], 0.043 µM. The EC50 in test [6] (Homo sapiens, PBMC) was found to be 1.09 µM; in test [9], 3.2 µM; in [7] (Mus musculus) it was 1.5 µM. This compound gave an IC50 in [10] of 2.2 µM.
For `Cn1cncc1-c1ccc2cnc(NC(=O)C3C(C)(C)C3(C)C)cc2c1` [Compound 269, 2,2,3,3-Tetramethyl-N-[6-(3-methylimidazol-4-yl)-3-isoquinolyl]cyclopropanecarboxamide], the EC50 in test [1] (Homo sapiens) amounted to 3.62 µM; in test [2], 0.005 µM; in test [3], 1.02 µM; in [4] (Homo sapiens, SH-SY5Y), 4.3 µM; in test [5] (Homo sapiens, 96 h), 2.33 µM; in test [8] it was 0.396 µM. Also, it took 3.39 µM to reach a half-maximal effect in [6] (Homo sapiens, PBMC) (EC50). Besides, the IC50 in test [10] was more than 10 µM.
For the compound `Cn1cc(-c2ccc3cnc(NC(=O)C4CCN(CCC(F)(F)F)CC4)cc3c2)nn1` [Compound 271, N-(6-(1-methyl-1H-1,2,3-triazol-4-yl)isoquinolin-3-yl)-1-(3,3,3-trifluoropropyl)piperidine-4-carboxamide], the EC50 worked out at 1.72 µM in [1] (Homo sapiens); 0.0021 µM in [2]; 0.003 µM in test [3]; 0.124 µM in test [4] (setting [12]); 2.96 µM in test [5] (Homo sapiens, 96 h); 0.064 µM in test [8]. This compound registered an EC50 in [6] (Homo sapiens, PBMC) of 3.08 µM. In test [10], the IC50 is 4.6 µM.
Consider `Cn1cnnc1-c1ccc2cnc(NC(=O)C3CCN(CCC(F)(F)F)CC3)cc2c1` [Compound 278, N-(6-(4-Methyl-4H-1,2,4-triazol-3-yl)isoquinolin-3-yl)-1-(3,3,3-trifluoropropyl)piperidine-4-carboxamide], for which the EC50 in test [1] (Homo sapiens) was 0.413 µM; in test [2], 0.0032 µM; in [3] it was 0.007 µM; in [4] (setting [12]), 0.076 µM; in test [5] (Homo sapiens, 96 h), 1.23 µM; in [8] it was 0.211 µM. Moreover, the EC50 in test [6] (Homo sapiens, PBMC) was 3.99 µM; in [9] it was more than 10 µM; in test [7] (Mus musculus), 0.217 µM.
Consider `CN1CC2(CC(C(=O)Nc3cc4cc(-c5cnn(C)c5)ccc4cn3)C2)C1` [Compound 324, 2-Methyl-N-(6-(1-methyl-1H-pyrazol-4-yl)isoquinolin-3-yl)-2-azaspiro[3.3] heptane-6-carboxamide], for which the EC50 in [1] (Homo sapiens) came to 0.145 µM; in [2], 0.0021 µM; in test [3] it was 0.03 µM; in [4] (setting [12]) it was 0.18 µM; in test [5] (Homo sapiens, 96 h), 0.266 µM; in [8] it was 0.068 µM. Further, the EC50 in test [6] (Homo sapiens, PBMC) amounted to 0.321 µM; in test [9], 0.033 µM; in test [7] (Mus musculus), 0.02 µM.
As for `Cn1cc(-c2ccc3cnc(NC(=O)CN4CCOCC4)cc3c2)cn1` [Compound 338, N-(6-(1-Methyl-1H-pyrazol-4-yl)isoquinolin-3-yl)-2-morpholinoacetamide], the EC50 in [1] (Homo sapiens) turned out to be 7.37 µM; in test [2] it was 0.0062 µM; in test [3], 0.067 µM; in [4] (setting [12]) it was 1.7 µM; in test [5] (Homo sapiens, 96 h), 9.33 µM; in test [8], 0.643 µM. For the same compound, the half-maximal effective concentration (EC50) in test [6] (Homo sapiens, PBMC) is 4.46 µM; in test [9], 0.724 µM; in test [7] (Mus musculus) it was 0.144 µM.
As for `CC(C)CN1CCC(C(=O)Nc2cc3cc(-c4cn(C)nn4)ccc3cn2)CC1` [Compound 468], the EC50 in test [1] (Homo sapiens) was 0.363 µM; in test [2], 0.0049 µM; in test [3], 0.007 µM; in test [4] (setting [12]), 0.039 µM; in test [5] (Homo sapiens, 96 h), 2.51 µM; in [6] (Homo sapiens, PBMC) it was 5.78 µM. Besides, the EC50 in test [9] amounted to 2.1 µM; in [7] (Mus musculus), 0.023 µM.
For the compound `Cc1ncc(-c2ccc3cnc(NC(=O)[C@H]4CC[C@H](N5CCOCC5)CC4)cc3c2)o1` [Compound 1064, trans-N-(6-(2-methyloxazol-5-yl)isoquinolin-3-yl)-4-morpholinocyclohexane-1-carboxamide], the EC50 stood at 4.12 µM in test [1] (Homo sapiens); 0.0067 µM in [2]; 0.126 µM in [3]; 0.109 µM in test [4] (setting [12]); 4.85 µM in test [5] (Homo sapiens, 96 h); 3.5 µM in [6] (Homo sapiens, PBMC). The EC50 in test [9] was found to be 0.03 µM; in [7] (Mus musculus), 0.006 µM; in test [11], 0.014 µM.
Turning to `CN1CCC(C(=O)Nc2cc3cc(-c4nnc(N(C)C)o4)ccc3cn2)CC1` [Compound 1076, N-(6-(5-(dimethylamino)-1,3,4-oxadiazol-2-yl)isoquinolin-3-yl)-1-methylpiperidine-4-carboxamide], the EC50 in test [1] (Homo sapiens) is 0.64 µM; in test [2], 0.0084 µM; in test [3], 0.011 µM; in [4] (setting [12]) it was 0.041 µM; in test [5] (Homo sapiens, 96 h), 1.58 µM; in [6] (Homo sapiens, PBMC), more than 10 µM. Further, the half-maximal effective concentration (EC50) was 1.8 µM in [9], 0.008 µM in [7] (Mus musculus) and 0.291 µM in test [11]. In addition, in test [6] (Homo sapiens, PBMC, read-out: percent value in parentheses beside EC50 >10 μM), the inhibition at 10 µM was found to be 3%.
